Data reported in the NIST ThermoML archive (doi:10.1016/j.tca.2012.08.011).

Test: xn = mol fraction of the nth substance listed
Conditions: 101 kPa, Liquid; for speed of sound: Linear variable-path acoustic interferometer; for mass density: Vibrating tube method

NC1CCCCC1 [cyclohexylamine] + C1CCCCC1
Conditions | mass density [kg/m3] | speed of sound [m/s]
293.15 K, x1 = 0.0545 | 782.87 | 1282.7
293.15 K, x1 = 0.1032 | 786.84 | 1287.2
293.15 K, x1 = 0.1514 | 790.9 | 1291.9
293.15 K, x1 = 0.204 | 795.42 | 1298
293.15 K, x1 = 0.2496 | 799.41 | 1303.5
293.15 K, x1 = 0.3052 | 804.34 | 1310.7
293.15 K, x1 = 0.3467 | 808.08 | 1316.6
293.15 K, x1 = 0.3967 | 812.57 | 1323.8
293.15 K, x1 = 0.4025 | 813.08 | 1324.5
293.15 K, x1 = 0.4478 | 817.22 | 1331.2
293.15 K, x1 = 0.4992 | 821.91 | 1339.2
293.15 K, x1 = 0.5538 | 826.9 | 1348.3
293.15 K, x1 = 0.6495 | 835.66 | 1364.5
293.15 K, x1 = 0.6996 | 840.25 | 1373.5
293.15 K, x1 = 0.7535 | 845.15 | 1383.2
293.15 K, x1 = 0.8071 | 850.03 | 1393
293.15 K, x1 = 0.8555 | 854.41 | 1402.2
293.15 K, x1 = 0.8959 | 858.06 | 1410.1
293.15 K, x1 = 0.9501 | 862.93 | 1420.6
293.15 K, x1 = 1 | 867.39 | 1430.5
298.15 K, x1 = 0.0545 | 778.17 | 1257.9
298.15 K, x1 = 0.1032 | 782.14 | 1262.6
298.15 K, x1 = 0.1514 | 786.2 | 1267.6
298.15 K, x1 = 0.204 | 790.73 | 1273.8
298.15 K, x1 = 0.2496 | 794.7 | 1279.4
298.15 K, x1 = 0.3052 | 799.64 | 1286.8
298.15 K, x1 = 0.3467 | 803.36 | 1293
298.15 K, x1 = 0.3967 | 807.88 | 1300.2
298.15 K, x1 = 0.4025 | 808.4 | 1300.9
298.15 K, x1 = 0.4478 | 812.54 | 1307.8
298.15 K, x1 = 0.4992 | 817.25 | 1315.9
298.15 K, x1 = 0.5538 | 822.24 | 1325
298.15 K, x1 = 0.6495 | 831.02 | 1341.3
298.15 K, x1 = 0.6996 | 835.61 | 1350.4
298.15 K, x1 = 0.7535 | 840.54 | 1360.5
298.15 K, x1 = 0.8071 | 845.43 | 1370.4
298.15 K, x1 = 0.8555 | 849.81 | 1379.6
298.15 K, x1 = 0.8959 | 853.48 | 1387.7
298.15 K, x1 = 0.9501 | 858.37 | 1398.5
298.15 K, x1 = 1 | 862.85 | 1408.8
303.15 K, x1 = 0.0545 | 773.44 | 1233.6
303.15 K, x1 = 0.1032 | 777.42 | 1238.1
303.15 K, x1 = 0.1514 | 781.48 | 1243.5
303.15 K, x1 = 0.204 | 786.03 | 1249.7
303.15 K, x1 = 0.2496 | 790.01 | 1255.4
303.15 K, x1 = 0.3052 | 794.94 | 1263.2
303.15 K, x1 = 0.3467 | 798.67 | 1269
303.15 K, x1 = 0.3967 | 803.19 | 1276.7
303.15 K, x1 = 0.4025 | 803.71 | 1277.4
303.15 K, x1 = 0.4478 | 807.85 | 1284.4
303.15 K, x1 = 0.4992 | 812.59 | 1292.7
303.15 K, x1 = 0.5538 | 817.57 | 1301.8
303.15 K, x1 = 0.6495 | 826.37 | 1318.5
303.15 K, x1 = 0.6996 | 830.97 | 1327.6
303.15 K, x1 = 0.7535 | 835.93 | 1337.7
303.15 K, x1 = 0.8071 | 840.82 | 1347.9
303.15 K, x1 = 0.8555 | 845.22 | 1357.2
303.15 K, x1 = 0.8959 | 848.9 | 1365.3
303.15 K, x1 = 0.9501 | 853.81 | 1376.5
303.15 K, x1 = 1 | 858.31 | 1387.3
308.15 K, x1 = 0.0545 | 768.69 | 1209.3
308.15 K, x1 = 0.1032 | 772.67 | 1213.9
308.15 K, x1 = 0.1514 | 776.74 | 1219.6
308.15 K, x1 = 0.204 | 781.3 | 1225.8
308.15 K, x1 = 0.2496 | 785.28 | 1231.6
308.15 K, x1 = 0.3052 | 790.22 | 1239.7
308.15 K, x1 = 0.3467 | 793.96 | 1245.6
308.15 K, x1 = 0.3967 | 798.48 | 1253.5
308.15 K, x1 = 0.4025 | 799.01 | 1254.4
308.15 K, x1 = 0.4478 | 803.16 | 1261.5
308.15 K, x1 = 0.4992 | 807.91 | 1269.9
308.15 K, x1 = 0.5538 | 812.89 | 1279
308.15 K, x1 = 0.6495 | 821.73 | 1295.7
308.15 K, x1 = 0.6996 | 826.34 | 1305
308.15 K, x1 = 0.7535 | 831.31 | 1315.5
308.15 K, x1 = 0.8071 | 836.22 | 1325.6
308.15 K, x1 = 0.8555 | 840.63 | 1334.9
308.15 K, x1 = 0.8959 | 844.32 | 1343.1
308.15 K, x1 = 0.9501 | 849.24 | 1354.7
308.15 K, x1 = 1 | 853.76 | 1366
313.15 K, x1 = 0.0545 | 763.91 | 1185.5
313.15 K, x1 = 0.1032 | 767.89 | 1189.8
313.15 K, x1 = 0.1514 | 771.98 | 1195.5
313.15 K, x1 = 0.204 | 776.54 | 1202
313.15 K, x1 = 0.2496 | 780.53 | 1207.9
313.15 K, x1 = 0.3052 | 785.49 | 1216.3
313.15 K, x1 = 0.3467 | 789.24 | 1222.2
313.15 K, x1 = 0.3967 | 793.77 | 1230.3
313.15 K, x1 = 0.4025 | 794.29 | 1231
313.15 K, x1 = 0.4478 | 798.45 | 1238.5
313.15 K, x1 = 0.4992 | 803.21 | 1247
313.15 K, x1 = 0.5538 | 808.21 | 1256.3
313.15 K, x1 = 0.6495 | 817.07 | 1273.3
313.15 K, x1 = 0.6996 | 821.7 | 1282.6
313.15 K, x1 = 0.7535 | 826.67 | 1292.9
313.15 K, x1 = 0.8071 | 831.61 | 1303.4
313.15 K, x1 = 0.8555 | 836.02 | 1312.8
313.15 K, x1 = 0.8959 | 839.74 | 1321.1
313.15 K, x1 = 0.9501 | 844.68 | 1332.8
313.15 K, x1 = 1 | 849.23 | 1344.5
318.15 K, x1 = 0.0545 | 759.09 | 1162.1
318.15 K, x1 = 0.1032 | 763.09 | 1166.2
318.15 K, x1 = 0.1514 | 767.19 | 1171.9
318.15 K, x1 = 0.204 | 771.77 | 1178.7
318.15 K, x1 = 0.2496 | 775.77 | 1184.7
318.15 K, x1 = 0.3052 | 780.74 | 1193.1
318.15 K, x1 = 0.3467 | 784.5 | 1199.2
318.15 K, x1 = 0.3967 | 789.02 | 1207.3
318.15 K, x1 = 0.4025 | 789.56 | 1208.2
318.15 K, x1 = 0.4478 | 793.71 | 1215.8
318.15 K, x1 = 0.4992 | 798.49 | 1224.5
318.15 K, x1 = 0.5538 | 803.51 | 1233.9
318.15 K, x1 = 0.6495 | 812.4 | 1251.1
318.15 K, x1 = 0.6996 | 817.05 | 1260.4
318.15 K, x1 = 0.7535 | 822.04 | 1270.9
318.15 K, x1 = 0.8071 | 827 | 1281.5
318.15 K, x1 = 0.8555 | 831.42 | 1290.9
318.15 K, x1 = 0.8959 | 835.15 | 1299.2
318.15 K, x1 = 0.9501 | 840.12 | 1311.1
318.15 K, x1 = 1 | 844.68 | 1323.1
323.15 K, x1 = 0.0545 | 754.26 | 1138.5
323.15 K, x1 = 0.1032 | 758.27 | 1142.7
323.15 K, x1 = 0.1514 | 762.37 | 1148.4
323.15 K, x1 = 0.204 | 766.97 | 1155.2
323.15 K, x1 = 0.2496 | 770.99 | 1161.4
323.15 K, x1 = 0.3052 | 775.97 | 1169.9
323.15 K, x1 = 0.3467 | 779.75 | 1176.2
323.15 K, x1 = 0.3967 | 784.29 | 1184.5
323.15 K, x1 = 0.4025 | 784.82 | 1185.4
323.15 K, x1 = 0.4478 | 788.97 | 1193.2
323.15 K, x1 = 0.4992 | 793.75 | 1202
323.15 K, x1 = 0.5538 | 798.79 | 1211.6
323.15 K, x1 = 0.6495 | 807.72 | 1228.8
323.15 K, x1 = 0.6996 | 812.4 | 1238.3
323.15 K, x1 = 0.7535 | 817.4 | 1248.9
323.15 K, x1 = 0.8071 | 822.37 | 1259.4
323.15 K, x1 = 0.8555 | 826.82 | 1269.2
323.15 K, x1 = 0.8959 | 830.56 | 1277.6
323.15 K, x1 = 0.9501 | 835.56 | 1289.6
323.15 K, x1 = 1 | 840.14 | 1301.8
